Assay results from patent publication US11932626B2, “2-pyrimidone analogs as potent antiviral agents against Alphaviruses” (priority 2020, dated 2024).

How the values were obtained:
[1] = test system: VEEV (TC-83); assay: microbe, parasite or virus in culture; type: cell-based; conditions: Venezuelan equine encephalitis virus, read-out: VEEV EC50
[2] = in vitro; conditions: human
[3] = test system: CHIKV linked NanoLuc luciferase reporter; assay: microbe, parasite or virus in culture; type: cell-based; conditions: Chikungunya virus, read-out: CHIKV EC50
[4] = test system: VEEV; assay: microbe, parasite or virus in culture; type: cell-based; conditions: Venezuelan equine encephalitis virus, NHDF; for EC90: read-out: VEEV EC90; for log reduction at 10 µM: read-out: VEEV VTR
[5] = test system: CHIKV; assay: CHIKV virus titer reduction (VTR) assay in NHDF cells; type: cell-based; conditions: Chikungunya virus; for log reduction at 10 µM: CHIKV titer reduction at 10 μM, normal human dermal fibroblasts (NHDF) cells; for EC90: effective concentration of 90% inhibition of virus in a VTR assay, NHDF cells

O=C(COc1cc(OC2COC2)[nH]c(=O)n1)NC12CC3CC(CC(C3)C1)C2 [compound 53, N-(Adamantan-1-Yl)-2-((6-(Oxetan-3-Yloxy)-2-Oxo-1,2-Dihydropyrimidin-4-Yl)Oxy)Acetamide]
EC50 [1]: > 40 µM
CC50 [2]: > 40 µM
EC50 [3]: 27.9 µM

COCCOc1cc(OCC(=O)NC23CC4CC(CC(C4)C2)C3)nc(=O)[nH]1 [compound 49, N-(Adamantan-1-Yl)-2-((6-(2-Methoxyethoxy)-2-Oxo-1,2-Dihydropyrimidin-4-Yl)Oxy)Acetamide]
EC90 [4]: > 10 µM
log reduction at 10 µM [4]: 0
EC50 [1]: 38.6 µM
CC50 [2]: > 40 µM
log reduction at 10 µM [5]: 3.73
EC90 [5]: 1.3 µM
EC50 [3]: 3.08 µM

COC(=O)c1c(SCC(=O)NC23CC4CC(CC(C4)C2)C3)nc(=O)[nH]c1C [compound 1]
EC90 [4]: 1.9 µM
EC50 [1]: 4.33 µM
CC50 [2]: > 127 µM
log reduction at 10 µM [5]: 6.9
EC90 [5]: 0.089 µM
EC50 [3]: 0.66 µM

O=C(CSc1cc[nH]c(=O)n1)NCC12CC3CC(CC(C3)C1)C2 [compound 41, N-((Adamantan-1-Yl)Methyl)-2-((2-Oxo-1,2-Dihydropyrimidin-4-Yl)Thio)Acetamide]
EC50 [1]: > 40 µM
CC50 [2]: > 40 µM
EC50 [3]: > 40 µM

O=C(COc1nc(=O)[nH]c(N2C3CCC2COC3)c1F)NC12CC3CC(CC(C3)C1)C2 [compound 34, 2-((6-(3-Oxa-8-Azabicyclo[3.2.1]Octan-8-Yl)-5-Fluoro-2-Oxo-1,2-Dihydropyrimidin-4-Yl)Oxy)-N-(Adamantan-1-Yl)Acetamide]
EC90 [4]: 5 µM
log reduction at 10 µM [4]: 1.97
EC50 [1]: 22.5 µM
CC50 [2]: > 40 µM
log reduction at 10 µM [5]: 6.13
EC90 [5]: 0.19 µM
EC50 [3]: 1.02 µM

O=C(COc1nc(=O)[nH]c2c1CCCC2)NC12CC3CC(CC(C3)C1)C2 [compound 22, N-(Adamantan-1-Yl)-2-((2-Oxo-1,2,5,6,7,8-Hexahydroquinazolin-4-Yl)Oxy)Acetamide]
EC90 [4]: 1.44 µM
log reduction at 10 µM [4]: 7.02
EC50 [1]: 8.7 µM
CC50 [2]: > 40 µM
log reduction at 10 µM [5]: 4.94
EC90 [5]: 0.045 µM
EC50 [3]: 0.64 µM

CCC(C)Oc1cc(OCC(=O)NC23CC4CC(CC(C4)C2)C3)nc(=O)[nH]1 (centres unmarked) [compound 56, N-(adamantan-1-yl)-2-((6-(sec-butoxy)-2-oxo-1,2-dihydropyrimidin-4-yl)oxy)acetamide]
EC90 [4]: > 10 µM
log reduction at 10 µM [4]: 0
EC50 [1]: 16.2 µM
CC50 [2]: > 40 µM
log reduction at 10 µM [5]: 6.6
EC90 [5]: 0.17 µM
EC50 [3]: 0.701 µM

CC(C)Cc1cc(C(=O)Nc2ccc(C(C)(C)C)cc2)nc(=O)[nH]1 [compound 31, N-(4-(Tert.-Butyl)Phenyl)-6-Isobutyl-2-Oxo-1,2-Dihydropyrimidine-4-Carboxamide]
EC50 [1]: > 40 µM
CC50 [2]: > 40 µM
EC50 [3]: 13.1 µM

O=C(COc1cc(OCCO)[nH]c(=O)n1)NC12CC3CC(CC(C3)C1)C2 [compound 32, N-(adamantan-1-yl)-2-((6-(2-hydroxyethoxy)-2-oxo-1,2-dihydropyrimidin-4-yl)oxy)acetamide]
EC50 [1]: > 40 µM
CC50 [2]: > 40 µM
log reduction at 10 µM [5]: 3.45
EC90 [5]: 0.61 µM
EC50 [3]: 4.69 µM

O=C(COc1cc(-c2ccccc2)[nH]c(=O)n1)NC12CC3CC(CC(C3)C1)C2 [compound 15, N-(Adamantan-1-Yl)-2-((2-Oxo-6-Phenyl-1,2-Dihydropyrimidin-4-Yl)Oxy)Acetamide]
EC90 [4]: 2.02 µM
log reduction at 10 µM [4]: 3.25
EC50 [1]: 20.8 µM
CC50 [2]: > 40 µM
log reduction at 10 µM [5]: 8.93
EC90 [5]: 2.7 µM
EC50 [3]: 1.47 µM

CCCCOC(=O)c1cc(SCC(=O)NC23CC4CC(CC(C4)C2)C3)nc(=O)[nH]1 [compound 39, Butyl 6-((2-((-Adamantan-1-Yl)Amino)-2-Oxoethyl)Thio)-2-Oxo-2,3-Dihydropyrimidine-4-Carboxylate]
EC50 [1]: > 40 µM
CC50 [2]: > 40 µM
EC50 [3]: > 40 µM

O=C(COc1nc(=O)[nH]cc1F)NC12CC3CC(CC(C3)C1)C2 [compound 26, N-(ADAMANTAN-1-YL)-2-((5-FLUORO-2-OXO-1,2-DIHYDROPYRIMIDIN-4-YL)OXY)ACETAMIDE]
EC90 [4]: 0.1 µM
log reduction at 10 µM [4]: 3.22
EC50 [1]: > 40 µM
CC50 [2]: > 40 µM
log reduction at 10 µM [5]: 5.19
EC90 [5]: 0.3 µM
EC50 [3]: 3.15 µM

CCOc1cc(OCC(=O)NC23CC4CC(CC(C4)C2)C3)nc(=O)[nH]1 [compound 55, N-(Adamantan-1-Yl)-2-((6-Ethoxy-2-Oxo-1,2-Dihydropyrimidin-4-Yl)Oxy)Acetamide]
EC90 [4]: > 10 µM
log reduction at 10 µM [4]: 0.05
EC50 [1]: 2.78 µM
CC50 [2]: > 40 µM
log reduction at 10 µM [5]: 4
EC90 [5]: 0.14 µM
EC50 [3]: 0.179 µM

CC(C)Cc1cc(C(=O)NCCC23CC4CC(CC(C4)C2)C3)nc(=O)[nH]1 [compound 5, N-(2-(Adamantan-1-Yl)Ethyl)-6-Isobutyl-2-Oxo-1,2-Dihydropyrimidine-4-Carboxamide]
EC50 [1]: > 40 µM
CC50 [2]: > 40 µM
EC50 [3]: 35.2 µM

O=C(COc1cc(N2CCOCC2)[nH]c(=O)n1)NC12CC3CC(CC(C3)C1)C2 [compound 19, N-(Adamantan-1-Yl)-2-((6-Morpholino-2-Oxo-1,2-Dihydropyrimidin-4-Yl)Oxy)Acetamide]
EC90 [4]: 3.2 µM
log reduction at 10 µM [4]: 4.4
EC50 [1]: 33.3 µM
CC50 [2]: > 40 µM
log reduction at 10 µM [5]: 4.84
EC90 [5]: 0.74 µM
EC50 [3]: 2.38 µM

O=C(COc1cc(N2CC(F)(F)C2)[nH]c(=O)n1)NC12CC3CC(CC(C3)C1)C2 [compound 20, N-(Adamantan-1-Yl)-2-((6-(3,3-Difluoroazetidin-1-Yl)-2-Oxo-1,2-Dihydropyrimidin-4-Yl)Oxy)Acetamide]
EC90 [4]: 0.4 µM
log reduction at 10 µM [4]: 6.63
EC50 [1]: 2.01 µM
CC50 [2]: > 40 µM
log reduction at 10 µM [5]: 3.49
EC90 [5]: 0.067 µM
EC50 [3]: < 0.078 µM

O=C(COc1cc(C2CCCC2)[nH]c(=O)n1)NC12CC3CC(CC(C3)C1)C2 [compound 13, N-(Adamantan-1-Yl)-2-((6-Cyclopentyl-2-Oxo-1,2-Dihydropyrimidin-4-Yl)Oxy)Acetamide]
EC90 [4]: 4.5 µM
log reduction at 10 µM [4]: 1.94
EC50 [1]: 17.4 µM
CC50 [2]: > 40 µM
log reduction at 10 µM [5]: 5.93
EC90 [5]: 0.04 µM
EC50 [3]: 1.24 µM

O=C(COc1cc(C2CC(F)(F)C2)[nH]c(=O)n1)NC12CC3CC(CC(C3)C1)C2 [compound 14, N-(Adamantan-1-Yl)-2-((6-(3,3-Difluorocyclobutyl)-2-Oxo-1,2-Dihydropyrimidin-4-Yl)Oxy)Acetamide]
EC90 [4]: 0.03 µM
log reduction at 10 µM [4]: 8.19
EC50 [1]: 0.83 µM
CC50 [2]: > 40 µM
log reduction at 10 µM [5]: 3.17
EC90 [5]: 0.07 µM
EC50 [3]: < 0.078 µM

O=C(CNc1cc[nH]c(=O)n1)NC12CC3CC(CC(C3)C1)C2 [compound 6, N-(adamantan-1-yl)-2-((2-oxo-1,2-dihydropyrimidin-4-yl)amino)acetamide]
EC50 [1]: > 40 µM
CC50 [2]: > 40 µM
EC50 [3]: 11.8 µM

O=C(CSc1cc[nH]c(=O)n1)NC1C2CC3CC(C2)CC1C3 (centres unmarked) [compound 4, N-(Adamantan-2-Yl)-2-((2-Oxo-1,2-Dihydropyrimidin-4-Yl)Thio)Acetamide]
log reduction at 10 µM [4]: 5.88
EC50 [1]: 1.68 µM
CC50 [2]: > 40 µM
log reduction at 10 µM [5]: 7.3
EC90 [5]: 0.61 µM
EC50 [3]: 0.437 µM

O=C(NC12CC3CC(CC(C3)C1)C2)c1cc[nH]c(=O)n1 [compound 42, N-((Adamantan-1-Yl)-2-Oxo-1,2-Dihydropyrimidine-4-Carboxamide]
EC50 [1]: > 40 µM
CC50 [2]: > 40 µM
EC50 [3]: > 40 µM

CC(C)(C)c1ccc(NC(=O)c2cc[nH]c(=O)n2)cc1 [compound 30, N-(4-(Tert.-Butyl)Phenyl)-2-Oxo-1,2-Dihydropyrimidine-4-Carboxamide]
EC50 [1]: > 40 µM
CC50 [2]: > 40 µM
EC50 [3]: 26.4 µM

CC(C)Cc1cc(C(=O)NC23CC4CC(CC(C4)C2)C3)nc(=O)[nH]1 [compound 43, N-(Adamantan-1-Yl)-6-Isobutyl-2-Oxo-1,2-Dihydropyrimidine-4-Carboxamide]
EC50 [1]: > 40 µM
CC50 [2]: > 40 µM
EC50 [3]: > 40 µM

O=C(CSc1cc(C(=O)O)[nH]c(=O)n1)NC12CC3CC(CC(C3)C1)C2 [compound 40, 6-((2-((adamantan-1-yl)amino)-2-oxoethyl)thio)-2-oxo-2,3-dihydropyrimidine-4-carboxylic acid]
EC50 [1]: > 40 µM
CC50 [2]: > 40 µM
EC50 [3]: > 40 µM

CC(C)Oc1[nH]c(=O)nc(OCC(=O)NC23CC4CC(CC(C4)C2)C3)c1F [compound 54, N-(Adamantan-1-Yl)-2-((5-Fluoro-6-Isopropoxy-2-Oxo-1,2-Dihydropyrimidin-4-Yl)Oxy)Acetamide]
EC50 [1]: > 40 µM
CC50 [2]: > 40 µM
EC50 [3]: 21.5 µM

O=C(COc1cc(OCC(F)(F)F)[nH]c(=O)n1)NC12CC3CC(CC(C3)C1)C2 [compound 57, N-(adamantan-1-yl)-2-((2-oxo-6-(2,2,2-trifluoroethoxy)-1,2-dihydropyrimidin-4-yl)oxy)acetamide]
EC50 [1]: > 40 µM
CC50 [2]: > 40 µM
log reduction at 10 µM [5]: 7.79
EC90 [5]: 0.3 µM
EC50 [3]: 2.97 µM

O=C(COc1nc(=O)[nH]c(N2CCOCC2)c1F)NC12CC3CC(CC(C3)C1)C2 [compound 33, N-(Adamantan-1-Yl)-2-((5-Fluoro-6-Morpholino-2-Oxo-1,2-Dihydropyrimidin-4-Yl)Oxy)Acetamide]
EC50 [1]: 23.9 µM
CC50 [2]: > 40 µM
log reduction at 10 µM [5]: 6.08
EC90 [5]: 0.15 µM
EC50 [3]: 1.8 µM
